Laboratory results reported in paper PMC10905675, “INX-315, a Selective CDK2 Inhibitor, Induces Cell Cycle Arrest and Senescence in Solid Tumors” (Cancer Discovery, 2023).

Columns and labels:
Experiment in all cases: SelectScreen LanthaScreen Binding
Settings in all cases: INX-0315 at 100nM
[1] = target: T1, MAP3K7/MAP3K7IP1 (TAK1-TAB1) (Homo sapiens, UniProt O43318)
T1 construct: purchased Thermo Fisher Scientific SelectScreen (plus Nanosyn / Reaction Biology for CDK/cyclin lines)
Description: (§1) INX-315 was first evaluated in the SelectScreen Biochemical Kinase Profiling at Thermo Fisher Scientific (Madison, WI). The primary screen consisted of INX-315 dosed at a single concentration of 100 nmol/L in 1% DMSO across each platform within the SelectScreen array of assays, LanthaScreen Eu Kinase Binding Assay; AdaptaScreen; and Z'LyteScreen using preestablished conditions at Thermo Fisher Scientific as shown in Supplementary Table S2. […] The follow-up screen consisted of 10-point dose–response curves for INX-315 from 1 µmol/L to 0.0495 nmol/L.

CAMKK1 (CAMKKA) = target: T2, CAMKK1 (CAMKKA) (Homo sapiens, UniProt Q8N5S9)
T2 construct: purchased Thermo Fisher Scientific SelectScreen (plus Nanosyn / Reaction Biology for CDK/cyclin lines)
Description: as §1

BRSK2 = target: T3, BRSK2 (Homo sapiens, UniProt Q8IWQ3)
T3 construct: purchased Thermo Fisher Scientific SelectScreen (plus Nanosyn / Reaction Biology for CDK/cyclin lines)
Description: as §1

DMPK = target: T4, DMPK (Homo sapiens, UniProt Q09013)
T4 construct: purchased Thermo Fisher Scientific SelectScreen (plus Nanosyn / Reaction Biology for CDK/cyclin lines)
Description: as §1

MAP3K3 (MEKK3) = target: T5, MAP3K3 (MEKK3) (Homo sapiens, UniProt Q99759)
T5 construct: purchased Thermo Fisher Scientific SelectScreen (plus Nanosyn / Reaction Biology for CDK/cyclin lines)
Description: as §1

ACVR1 (ALK2) = target: T6, ACVR1 (ALK2) (Homo sapiens, UniProt Q04771)
T6 construct: purchased Thermo Fisher Scientific SelectScreen (plus Nanosyn / Reaction Biology for CDK/cyclin lines)
Description: as §1

STK17A (DRAK1) = target: T7, STK17A (DRAK1) (Homo sapiens, UniProt Q9UEE5)
T7 construct: purchased Thermo Fisher Scientific SelectScreen (plus Nanosyn / Reaction Biology for CDK/cyclin lines)
Description: as §1

KIT D816H = target: T8, KIT D816H (Homo sapiens, UniProt P10721, D816H)
T8 construct: purchased Thermo Fisher Scientific SelectScreen (plus Nanosyn / Reaction Biology for CDK/cyclin lines)
Description: as §1

BMPR1A (ALK3) = target: T9, BMPR1A (ALK3) (Homo sapiens, UniProt P36894)
T9 construct: purchased Thermo Fisher Scientific SelectScreen (plus Nanosyn / Reaction Biology for CDK/cyclin lines)
T9 sequence (P36894 24-532): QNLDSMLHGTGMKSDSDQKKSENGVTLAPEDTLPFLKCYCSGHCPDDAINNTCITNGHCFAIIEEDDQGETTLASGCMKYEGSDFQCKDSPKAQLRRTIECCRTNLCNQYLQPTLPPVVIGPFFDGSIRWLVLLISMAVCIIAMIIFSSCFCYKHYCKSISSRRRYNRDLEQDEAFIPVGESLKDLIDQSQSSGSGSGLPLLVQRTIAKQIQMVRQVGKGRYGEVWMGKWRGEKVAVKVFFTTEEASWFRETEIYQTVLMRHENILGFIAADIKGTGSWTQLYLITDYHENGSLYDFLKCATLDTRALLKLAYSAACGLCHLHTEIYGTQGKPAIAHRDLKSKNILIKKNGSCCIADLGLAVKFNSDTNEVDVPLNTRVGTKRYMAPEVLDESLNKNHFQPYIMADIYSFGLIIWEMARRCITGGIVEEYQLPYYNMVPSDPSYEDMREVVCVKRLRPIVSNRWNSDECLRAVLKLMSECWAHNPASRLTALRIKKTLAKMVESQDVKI
Description: as §1

MERTK (cMER) A708S = target: T10, MERTK (cMER) A708S (Homo sapiens, UniProt Q12866, A708S)
T10 construct: purchased Thermo Fisher Scientific SelectScreen (plus Nanosyn / Reaction Biology for CDK/cyclin lines)
T10 sequence (Q12866 21-999 A708S): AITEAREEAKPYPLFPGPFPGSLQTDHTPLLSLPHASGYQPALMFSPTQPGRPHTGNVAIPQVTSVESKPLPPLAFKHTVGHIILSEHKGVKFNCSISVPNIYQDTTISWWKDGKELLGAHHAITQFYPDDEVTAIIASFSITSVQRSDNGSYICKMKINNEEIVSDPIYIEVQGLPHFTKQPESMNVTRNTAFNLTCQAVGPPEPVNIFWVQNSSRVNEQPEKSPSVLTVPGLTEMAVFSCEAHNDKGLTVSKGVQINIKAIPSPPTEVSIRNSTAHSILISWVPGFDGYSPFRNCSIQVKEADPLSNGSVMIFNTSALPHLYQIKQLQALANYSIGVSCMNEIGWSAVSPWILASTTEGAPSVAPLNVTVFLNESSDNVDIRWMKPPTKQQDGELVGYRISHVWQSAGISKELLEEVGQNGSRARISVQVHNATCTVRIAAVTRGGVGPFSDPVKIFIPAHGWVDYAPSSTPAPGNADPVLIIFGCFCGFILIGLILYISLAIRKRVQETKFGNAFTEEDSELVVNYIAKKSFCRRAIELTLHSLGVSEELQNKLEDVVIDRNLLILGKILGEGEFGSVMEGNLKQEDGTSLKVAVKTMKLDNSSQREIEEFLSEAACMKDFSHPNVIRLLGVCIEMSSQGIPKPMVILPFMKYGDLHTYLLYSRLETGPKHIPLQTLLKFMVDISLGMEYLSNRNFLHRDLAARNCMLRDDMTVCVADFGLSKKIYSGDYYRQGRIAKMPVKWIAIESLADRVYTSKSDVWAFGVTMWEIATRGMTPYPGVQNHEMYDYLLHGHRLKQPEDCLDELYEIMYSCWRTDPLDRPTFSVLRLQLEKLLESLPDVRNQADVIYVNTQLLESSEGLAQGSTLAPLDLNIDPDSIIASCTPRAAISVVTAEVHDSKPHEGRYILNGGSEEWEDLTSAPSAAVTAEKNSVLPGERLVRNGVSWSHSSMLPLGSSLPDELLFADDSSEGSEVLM
Description: as §1

MAPK9 (JNK2) = target: T11, MAPK9 (JNK2) (Homo sapiens, UniProt P45984)
T11 construct: purchased Thermo Fisher Scientific SelectScreen (plus Nanosyn / Reaction Biology for CDK/cyclin lines)
Description: as §1

TEK (TIE2) Y1108F = target: T12, TEK (TIE2) Y1108F (Homo sapiens, UniProt Q02763, Y1108F)
T12 construct: purchased Thermo Fisher Scientific SelectScreen (plus Nanosyn / Reaction Biology for CDK/cyclin lines)
Description: as §1

RIPK3 = target: T13, RIPK3 (Homo sapiens, UniProt Q9Y572)
T13 construct: purchased Thermo Fisher Scientific SelectScreen (plus Nanosyn / Reaction Biology for CDK/cyclin lines)
Description: as §1

MAP3K5 (ASK1) = target: T14, MAP3K5 (ASK1) (Homo sapiens, UniProt Q99683)
T14 construct: purchased Thermo Fisher Scientific SelectScreen (plus Nanosyn / Reaction Biology for CDK/cyclin lines)
Description: as §1

GAK = target: T15, GAK (Homo sapiens, UniProt O14976)
T15 construct: purchased Thermo Fisher Scientific SelectScreen (plus Nanosyn / Reaction Biology for CDK/cyclin lines)
Description: as §1

WNK1 = target: T16, WNK1 (Homo sapiens, UniProt Q9H4A3)
T16 construct: purchased Thermo Fisher Scientific SelectScreen (plus Nanosyn / Reaction Biology for CDK/cyclin lines)
Description: as §1

RIPK2 = target: T17, RIPK2 (Homo sapiens, UniProt O43353)
T17 construct: purchased Thermo Fisher Scientific SelectScreen (plus Nanosyn / Reaction Biology for CDK/cyclin lines)
T17 sequence (O43353 whole entry): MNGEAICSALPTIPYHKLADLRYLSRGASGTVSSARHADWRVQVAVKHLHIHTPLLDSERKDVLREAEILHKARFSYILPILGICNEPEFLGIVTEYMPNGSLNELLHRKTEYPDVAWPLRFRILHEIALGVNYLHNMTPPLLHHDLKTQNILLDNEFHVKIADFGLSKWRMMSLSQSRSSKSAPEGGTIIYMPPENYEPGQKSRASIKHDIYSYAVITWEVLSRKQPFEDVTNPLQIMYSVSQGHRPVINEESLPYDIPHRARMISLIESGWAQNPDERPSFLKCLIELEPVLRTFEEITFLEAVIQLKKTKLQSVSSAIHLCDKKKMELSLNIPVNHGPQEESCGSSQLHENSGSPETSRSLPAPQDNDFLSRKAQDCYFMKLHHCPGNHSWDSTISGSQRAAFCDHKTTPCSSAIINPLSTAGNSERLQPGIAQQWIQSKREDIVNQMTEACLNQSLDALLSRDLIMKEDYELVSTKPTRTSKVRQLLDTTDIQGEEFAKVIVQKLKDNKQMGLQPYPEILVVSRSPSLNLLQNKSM
Description: as §1

BMPR1B (ALK6) = target: T18, BMPR1B (ALK6) (Homo sapiens, UniProt O00238)
T18 construct: purchased Thermo Fisher Scientific SelectScreen (plus Nanosyn / Reaction Biology for CDK/cyclin lines)
Description: as §1

KIT N822K = target: T19, KIT N822K (Homo sapiens, UniProt P10721, N822K)
T19 construct: purchased Thermo Fisher Scientific SelectScreen (plus Nanosyn / Reaction Biology for CDK/cyclin lines)
Description: as §1

MLCK (MLCK2) = target: T20, MLCK (MLCK2) (Homo sapiens, UniProt Q32MK0)
T20 construct: purchased Thermo Fisher Scientific SelectScreen (plus Nanosyn / Reaction Biology for CDK/cyclin lines)
T20 sequence (Q32MK0 whole entry): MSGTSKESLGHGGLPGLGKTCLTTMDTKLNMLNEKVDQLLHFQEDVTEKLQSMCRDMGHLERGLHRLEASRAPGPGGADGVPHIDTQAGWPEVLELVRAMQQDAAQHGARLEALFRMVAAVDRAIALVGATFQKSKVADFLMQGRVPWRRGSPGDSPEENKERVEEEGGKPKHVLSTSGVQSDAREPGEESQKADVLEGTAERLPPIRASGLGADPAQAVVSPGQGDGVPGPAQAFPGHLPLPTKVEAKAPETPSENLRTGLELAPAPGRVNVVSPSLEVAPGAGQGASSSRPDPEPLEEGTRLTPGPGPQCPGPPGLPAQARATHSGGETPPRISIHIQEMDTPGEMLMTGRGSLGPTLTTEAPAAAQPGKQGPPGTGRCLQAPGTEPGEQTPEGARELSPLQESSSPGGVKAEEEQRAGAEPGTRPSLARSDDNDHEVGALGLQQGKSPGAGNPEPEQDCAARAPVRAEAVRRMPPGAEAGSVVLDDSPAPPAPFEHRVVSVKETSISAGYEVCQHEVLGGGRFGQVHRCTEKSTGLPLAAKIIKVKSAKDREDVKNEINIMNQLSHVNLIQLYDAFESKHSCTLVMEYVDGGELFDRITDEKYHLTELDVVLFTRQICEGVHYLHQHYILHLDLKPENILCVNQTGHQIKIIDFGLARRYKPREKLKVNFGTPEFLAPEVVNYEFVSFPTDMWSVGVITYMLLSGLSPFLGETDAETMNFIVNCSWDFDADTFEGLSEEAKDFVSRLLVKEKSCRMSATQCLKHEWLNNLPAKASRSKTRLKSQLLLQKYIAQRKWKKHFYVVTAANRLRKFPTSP
Description: as §1

WEE1 = target: T21, WEE1 (Homo sapiens, UniProt P30291)
T21 construct: purchased Thermo Fisher Scientific SelectScreen (plus Nanosyn / Reaction Biology for CDK/cyclin lines)
Description: as §1

CDK2/cyclin A1 = target: T22, CDK2/cyclin A1 (Homo sapiens, UniProt P24941)
T22 construct: host or cells: HEK293
Description: as §1

ALK L1196M = target: T23, ALK L1196M (Homo sapiens, UniProt Q9UM73, L1196M)
T23 construct: purchased Thermo Fisher Scientific SelectScreen (plus Nanosyn / Reaction Biology for CDK/cyclin lines)
Description: as §1

CDC7/DBF4 = target: T24, CDC7/DBF4 (Homo sapiens, UniProt O00311)
T24 construct: purchased Thermo Fisher Scientific SelectScreen (plus Nanosyn / Reaction Biology for CDK/cyclin lines)
Description: as §1

LATS2 = target: T25, LATS2 (Homo sapiens, UniProt Q9NRM7)
T25 construct: purchased Thermo Fisher Scientific SelectScreen (plus Nanosyn / Reaction Biology for CDK/cyclin lines)
Description: as §1

NUAK2 = target: T26, NUAK2 (Homo sapiens, UniProt Q9H093)
T26 construct: purchased Thermo Fisher Scientific SelectScreen (plus Nanosyn / Reaction Biology for CDK/cyclin lines)
Description: as §1

LIMK1 = target: T27, LIMK1 (Homo sapiens, UniProt P53667)
T27 construct: purchased Thermo Fisher Scientific SelectScreen (plus Nanosyn / Reaction Biology for CDK/cyclin lines)
Description: as §1

MAP3K14 (NIK) = target: T28, MAP3K14 (NIK) (Homo sapiens, UniProt Q99558)
T28 construct: purchased Thermo Fisher Scientific SelectScreen (plus Nanosyn / Reaction Biology for CDK/cyclin lines)
Description: as §1

RET M918T = target: T29, RET M918T (Homo sapiens, UniProt P07949, M918T)
T29 construct: purchased Thermo Fisher Scientific SelectScreen (plus Nanosyn / Reaction Biology for CDK/cyclin lines)
Description: as §1

CDK13/cyclin K = target: T30, CDK13/cyclin K (Homo sapiens, UniProt Q14004)
T30 construct: purchased Thermo Fisher Scientific SelectScreen (plus Nanosyn / Reaction Biology for CDK/cyclin lines)
Description: as §1

KIT T670E = target: T31, KIT T670E (Homo sapiens, UniProt P10721, T670E)
T31 construct: purchased Thermo Fisher Scientific SelectScreen (plus Nanosyn / Reaction Biology for CDK/cyclin lines)
Description: as §1

MYO3B (MYO3 beta) = target: T32, MYO3B (MYO3 beta) (Homo sapiens, UniProt Q8WXR4)
T32 construct: purchased Thermo Fisher Scientific SelectScreen (plus Nanosyn / Reaction Biology for CDK/cyclin lines)
T32 sequence (Q8WXR4 whole entry): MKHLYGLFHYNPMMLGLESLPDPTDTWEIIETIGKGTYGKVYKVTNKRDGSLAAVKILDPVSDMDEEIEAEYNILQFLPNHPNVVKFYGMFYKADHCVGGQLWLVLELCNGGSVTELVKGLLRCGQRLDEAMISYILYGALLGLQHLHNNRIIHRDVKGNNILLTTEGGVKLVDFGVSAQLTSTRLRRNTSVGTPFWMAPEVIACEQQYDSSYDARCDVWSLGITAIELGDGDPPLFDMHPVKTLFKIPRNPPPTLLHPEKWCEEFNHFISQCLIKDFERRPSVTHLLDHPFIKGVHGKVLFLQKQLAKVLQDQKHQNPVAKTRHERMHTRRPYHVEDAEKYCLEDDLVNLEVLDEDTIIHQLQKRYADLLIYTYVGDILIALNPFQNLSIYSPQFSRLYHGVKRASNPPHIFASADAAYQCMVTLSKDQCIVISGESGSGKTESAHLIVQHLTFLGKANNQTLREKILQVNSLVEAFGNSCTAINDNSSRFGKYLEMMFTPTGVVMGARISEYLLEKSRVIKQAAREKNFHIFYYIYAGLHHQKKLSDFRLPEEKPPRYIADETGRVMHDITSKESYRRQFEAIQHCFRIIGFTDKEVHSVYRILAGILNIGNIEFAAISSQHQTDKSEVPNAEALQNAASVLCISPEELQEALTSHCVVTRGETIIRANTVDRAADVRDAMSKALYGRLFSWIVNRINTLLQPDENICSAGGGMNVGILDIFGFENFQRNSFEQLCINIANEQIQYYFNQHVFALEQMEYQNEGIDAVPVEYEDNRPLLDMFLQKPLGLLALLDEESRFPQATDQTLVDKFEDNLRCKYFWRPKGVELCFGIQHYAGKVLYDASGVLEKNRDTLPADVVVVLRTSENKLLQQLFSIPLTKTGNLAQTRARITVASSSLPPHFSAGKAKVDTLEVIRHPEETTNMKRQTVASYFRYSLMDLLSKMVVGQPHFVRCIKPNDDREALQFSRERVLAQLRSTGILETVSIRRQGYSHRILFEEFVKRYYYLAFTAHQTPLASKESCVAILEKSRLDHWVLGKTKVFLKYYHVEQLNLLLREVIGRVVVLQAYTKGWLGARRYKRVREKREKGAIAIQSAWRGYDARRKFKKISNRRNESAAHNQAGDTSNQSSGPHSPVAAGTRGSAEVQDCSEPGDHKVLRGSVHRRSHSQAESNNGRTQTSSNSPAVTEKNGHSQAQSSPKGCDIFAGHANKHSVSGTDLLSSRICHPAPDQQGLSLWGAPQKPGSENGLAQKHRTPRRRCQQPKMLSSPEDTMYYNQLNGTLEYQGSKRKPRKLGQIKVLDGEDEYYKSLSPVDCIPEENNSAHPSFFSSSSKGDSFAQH
Description: as §1

MAP3K11 (MLK3) = target: T33, MAP3K11 (MLK3) (Homo sapiens, UniProt Q16584)
T33 construct: purchased Thermo Fisher Scientific SelectScreen (plus Nanosyn / Reaction Biology for CDK/cyclin lines)
Description: as §1

FGFR3 G697C = target: T34, FGFR3 G697C (Homo sapiens, UniProt P22607, G697C)
T34 construct: purchased Thermo Fisher Scientific SelectScreen (plus Nanosyn / Reaction Biology for CDK/cyclin lines)
Description: as §1

TEK (TIE2) R849W = target: T35, TEK (TIE2) R849W (Homo sapiens, UniProt Q02763, R849W)
T35 construct: purchased Thermo Fisher Scientific SelectScreen (plus Nanosyn / Reaction Biology for CDK/cyclin lines)
Description: as §1

ABL1 Q252H = target: T36, ABL1 Q252H (Homo sapiens, UniProt P00519, Q252H)
T36 construct: purchased Thermo Fisher Scientific SelectScreen (plus Nanosyn / Reaction Biology for CDK/cyclin lines)
Description: as §1

EGFR (ErbB1) d746-750 = target: T37, EGFR (ErbB1) d746-750 (Homo sapiens, UniProt P00533, DEL746-750)
T37 construct: purchased Thermo Fisher Scientific SelectScreen (plus Nanosyn / Reaction Biology for CDK/cyclin lines)
T37 sequence (P00533 with tags, fused parts or gaps DEL746-750 limits assumed): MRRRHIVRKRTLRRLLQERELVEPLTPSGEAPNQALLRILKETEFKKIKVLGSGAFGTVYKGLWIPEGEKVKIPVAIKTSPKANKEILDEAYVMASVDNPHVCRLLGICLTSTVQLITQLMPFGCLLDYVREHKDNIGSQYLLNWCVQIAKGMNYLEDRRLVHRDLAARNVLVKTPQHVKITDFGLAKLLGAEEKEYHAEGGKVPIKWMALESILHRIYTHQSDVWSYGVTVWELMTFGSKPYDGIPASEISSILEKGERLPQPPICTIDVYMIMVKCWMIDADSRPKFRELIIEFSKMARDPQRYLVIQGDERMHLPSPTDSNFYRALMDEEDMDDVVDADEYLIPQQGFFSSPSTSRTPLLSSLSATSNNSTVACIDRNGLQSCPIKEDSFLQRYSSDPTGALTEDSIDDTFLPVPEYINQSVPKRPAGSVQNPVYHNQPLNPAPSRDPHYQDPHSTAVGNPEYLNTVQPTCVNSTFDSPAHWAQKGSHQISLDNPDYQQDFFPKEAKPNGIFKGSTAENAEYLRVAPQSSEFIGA
Description: as §1

NS(=O)(=O)c1ccc(Nc2ncc3cc4n(c3n2)C2(CCCCC2)C(=O)NN4)cc1 [INX-315]
inhibition at 0.1 µM [1]: 14%
inhibition at 0.1 µM (CAMKK1 (CAMKKA)): 6%
inhibition at 0.1 µM (BRSK2): 4%
inhibition at 0.1 µM (DMPK): 6%
inhibition at 0.1 µM (MAP3K3 (MEKK3)): 18%
inhibition at 0.1 µM (ACVR1 (ALK2)): -5%
inhibition at 0.1 µM (STK17A (DRAK1)): 2%
inhibition at 0.1 µM (KIT D816H): 38%
inhibition at 0.1 µM (BMPR1A (ALK3)): 8%
inhibition at 0.1 µM (MERTK (cMER) A708S): 14%
inhibition at 0.1 µM (MAPK9 (JNK2)): 4%
inhibition at 0.1 µM (TEK (TIE2) Y1108F): 2%
inhibition at 0.1 µM (RIPK3): -9%
inhibition at 0.1 µM (MAP3K5 (ASK1)): 10%
inhibition at 0.1 µM (GAK): 38%
inhibition at 0.1 µM (WNK1): 4%
inhibition at 0.1 µM (RIPK2): -1%
inhibition at 0.1 µM (BMPR1B (ALK6)): 1%
inhibition at 0.1 µM (KIT N822K): 17%
inhibition at 0.1 µM (MLCK (MLCK2)): 5%
inhibition at 0.1 µM (WEE1): 4%
inhibition at 0.1 µM (CDK2/cyclin A1): 94%
inhibition at 0.1 µM (ALK L1196M): 7%
inhibition at 0.1 µM (CDC7/DBF4): -1%
inhibition at 0.1 µM (LATS2): 8%
inhibition at 0.1 µM (NUAK2): 35%
inhibition at 0.1 µM (LIMK1): 34%
inhibition at 0.1 µM (MAP3K14 (NIK)): -2%
inhibition at 0.1 µM (RET M918T): 42%
inhibition at 0.1 µM (CDK13/cyclin K): 39%
inhibition at 0.1 µM (KIT T670E): 9%
inhibition at 0.1 µM (MYO3B (MYO3 beta)): 0%
inhibition at 0.1 µM (MAP3K11 (MLK3)): 13%
inhibition at 0.1 µM (FGFR3 G697C): 13%
inhibition at 0.1 µM (TEK (TIE2) R849W): 7%
inhibition at 0.1 µM (ABL1 Q252H): 19%
inhibition at 0.1 µM (EGFR (ErbB1) d746-750): 0%
